The structures appear in SMILES notation. A value given as a limit tells only on which side of the number the result lay.

Assay [1] deals with T1, human EHMT2 913-1193 (Homo sapiens, UniProt Q96KQ7).
T1 sequence (Q96KQ7 913-1193): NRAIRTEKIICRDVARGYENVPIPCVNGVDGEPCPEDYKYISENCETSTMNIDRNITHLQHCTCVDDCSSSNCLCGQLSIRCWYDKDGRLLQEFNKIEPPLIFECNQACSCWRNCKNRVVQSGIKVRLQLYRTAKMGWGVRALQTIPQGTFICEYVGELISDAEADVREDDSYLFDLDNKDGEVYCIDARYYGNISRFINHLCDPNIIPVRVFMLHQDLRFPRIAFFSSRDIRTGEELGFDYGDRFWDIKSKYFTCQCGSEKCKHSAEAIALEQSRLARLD
The assay is described as follows: EHMT2 enzyme assay on histone peptide substrate (3H-SAM SPA). Particulars: EHMT2 IC50, recombinant human EHMT2 913-1193, histone peptide substrate.

The target in assay [2] is T2, human EHMT1 982-1266 (Homo sapiens, UniProt Q9H9B1).
T2 sequence (Q9H9B1 982-1266): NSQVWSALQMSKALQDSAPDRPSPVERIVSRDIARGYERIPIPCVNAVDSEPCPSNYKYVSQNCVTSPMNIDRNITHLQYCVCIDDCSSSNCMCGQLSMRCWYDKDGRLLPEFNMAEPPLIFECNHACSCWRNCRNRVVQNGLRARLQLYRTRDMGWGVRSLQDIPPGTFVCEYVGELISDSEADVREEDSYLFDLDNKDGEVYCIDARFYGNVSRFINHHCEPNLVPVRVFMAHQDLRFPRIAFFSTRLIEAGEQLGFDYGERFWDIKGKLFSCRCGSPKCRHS
In words: EHMT1 enzyme assay on histone peptide substrate (3H-SAM SPA). To be noted: EHMT1 IC50, recombinant human EHMT1 982-1266, histone peptide substrate.

Assay [3] relates to H3K9me2 in HCT116 cells. The assay is described as follows: HCT116 H3K9me2 in-cell western assay. To be noted: Homo sapiens, HCT-116, 72 h, HCT116 cells, 72 hours incubation; read-out: H3K9me2 ICW IC50. Format: cell-based. A digest of the protocol: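 HCT116 cells (2,000/well) were treated for 72 h at 37° C, 5% CO2, with ten two-fold dilutions from 10 μM in duplicate. After PFA fixation, cells were stained overnight at 4° C with anti-H3K9me2, then with an 800 CW secondary plus DRAQ5.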

What is called IC50 is the concentration needed to halve the response being measured. As to `CNc1cc(C)nc(Nc2cc3c(c(OCCCN4CCCC4)c2)OCCN3)n1` [Compound 136], the half-maximal inhibitory concentration (IC50) is over 2000 nM in assay [1], 100 to 500 nM in assay [2] and 500 to 2000 nM in assay [3].
Turning to `[2H]Cc1nc(Nc2cc3c(c(C4=CCN(C)CCC4)c2F)OCC3)nc(NC([2H])([2H])[2H])c1F` [Compound 219], the half-inhibitory concentration (IC50) is 100 to 500 nM in assay [1], 100 to 500 nM in assay [2] and under 100 nM in assay [3].
Take `CNc1cc(C)nc(Nc2cc3c(c(C4=CCNCC4)c2)OCC3)n1` [Compound 155, N4,6-dimethyl-N2-[7-(1,2,3,6-tetrahydropyridin-4-yl)-2,3-dihydrobenzofuran-5-yl]pyrimidine-2,4-diamine]: the IC50 in assay [1] was 500 to 2000 nM; in assay [2], 100 to 500 nM; in assay [3] it was 100 to 500 nM.
Regarding `CNc1nc(Nc2cc3c(c(C4=CCNCCC4)c2)OCC3)nc(C)c1C` [Compound 287], the 50% inhibitory concentration (IC50) in assay [1], in assay [2] and in assay [3] was under 100 nM in each case.
`[2H]Cc1cc(NC([2H])([2H])[2H])nc(Nc2cc3c(c(C4=CCN(C)CCC4)c2)OCCC3)n1` [Compound 251]: the half-maximal inhibitory concentration (IC50) in assay [1], in assay [2] and in assay [3] was under 100 nM in each case.
Regarding `[2H]C([2H])([2H])CNc1nc(Nc2cc3c(c(C4=CCN(C)CCC4)c2F)OCC3)nc(C)c1F` [Compound 261], the IC50 in assay [1] was 500 to 2000 nM; in assay [2] it was 100 to 500 nM; in assay [3], 100 to 500 nM.
Turning to `[2H]Cc1nc(Nc2cc3c(c(C4=CCNCCC4)c2)OCC3)nc(NC)c1F` [Compound 229], the 50% inhibitory concentration (IC50) in assay [1] is 100 to 500 nM; in assay [2], under 100 nM; in assay [3], 100 to 500 nM.
With `CNc1cc(C)nc(Nc2cc3c(c(C4=CCNCC(O)C4)c2C)OCC3)n1` (single isomer, unassigned) [Compound 358], the 50% inhibitory concentration (IC50) in assay [1], in assay [2] and in assay [3] was 100 to 500 nM each time.
As to `CNc1cc(C)nc(Nc2cc3c(c(OCCCN4CCCC4)c2)OCC(=O)N3)n1` [Compound 114], the IC50 in assay [1], in assay [2] and in assay [3] was over 2000 nM each time.
As for `CNc1nc(Nc2cc3c(c(C4=CCN(C)CCC4)c2F)OCC3)nc(C)c1C` [Compound 214], the half-inhibitory concentration (IC50) in assay [1], in assay [2] and in assay [3] was under 100 nM in each case.
In the case of `[2H]C([2H])([2H])CNc1cc(C)nc(Nc2cc3c(c(C4=CCN(C)CCC4)c2)OCC3)n1` [Compound 296], the IC50 in assay [1] was 100 to 500 nM; in assay [2], under 100 nM; in assay [3] it was 100 to 500 nM.
Take `[2H]C([2H])([2H])Nc1nc(Nc2cc3c(c(C4=CCN(C)CCC4)c2F)OCC3)nc(C)c1F` [Compound 228]: the IC50 is 100 to 500 nM in assay [1], under 100 nM in assay [2] and 100 to 500 nM in assay [3].
`CNc1cc(C)nc(Nc2cc3c(c(C4=CCC(N)CC4)c2F)OCC3)n1` (single isomer, unassigned) [Compound 435]: the values for the 50% inhibitory concentration (IC50) in assay [1], in assay [2] and in assay [3] were 100 to 500 nM, under 100 nM and under 100 nM, respectively.
In the case of `CNc1cc(C)nc(Nc2cc3c(c(C4=CCN(C)CCC4)c2)OCC3)c1` [Compound 278], the IC50 in assay [1] is 100 to 500 nM; in assay [2] it was under 100 nM; in assay [3] it was 100 to 500 nM.
Consider `CNc1cc(C)nc(Nc2cc3c(c(N4CCNCC4)c2)OCC3)n1` [Compound 152], for which the IC50 in assay [1], in assay [2] and in assay [3] was over 2000 nM in each case.
On to `CNc1cc(C)nc(Nc2cc3c(c(C4=CCNCC4)c2)OCCC3)n1` [Compound 345], for which the IC50 fell in the range of 500 to 2000 nM in assay [1], 100 to 500 nM in assay [2] and 100 to 500 nM in assay [3].
Consider `CNc1cc(C)nc(Nc2cc3c(c(C4=CCNCCC4)c2C)OCCC3)n1` [Compound 353, N4,6-dimethyl-N2-[7-methyl-8-(2,3,4,7-tetrahydro-1H-azepin-5-yl)chroman-6-yl]pyrimidine-2,4-diamine], for which the half-maximal inhibitory concentration (IC50) in assay [1], in assay [2] and in assay [3] was under 100 nM in each case.
For the compound `CNc1cc(C)nc(Nc2cc3c(c(C4=CCNCCC4)c2C)OCO3)n1` [Compound 363], the half-maximal inhibitory concentration (IC50) is 100 to 500 nM in assay [1], under 100 nM in assay [2] and under 100 nM in assay [3].
As to `[2H]Cc1cc(NC([2H])([2H])[2H])nc(Nc2cc3c(c(C4=CCN(C)CCC4)c2)OCCO3)n1` [Compound 230], the half-inhibitory concentration (IC50) was 100 to 500 nM in assay [1], under 100 nM in assay [2] and 100 to 500 nM in assay [3].
As to `CNc1cc(C)nc(Nc2cc3c(c(C4=C[C@H](C)NCCC4)c2F)OCC3)n1` [Compound 185], the IC50 was 100 to 500 nM in assay [1], under 100 nM in assay [2] and under 100 nM in assay [3].
Turning to `CCNc1cc(C)nc(Nc2cc3c(c(C4=CCN(C)CCC4)c2)OCC3)n1` [Compound 321], the results for the IC50 in assay [1], in assay [2] and in assay [3] were 100 to 500 nM, under 100 nM and 100 to 500 nM, respectively.
Turning to `[2H]Cc1cc(NCC([2H])([2H])[2H])nc(Nc2cc3c(c(C4=CCN(C)CCC4)c2F)OCC3)n1` [Compound 260], the IC50 in assay [1], in assay [2] and in assay [3] was under 100 nM each time.
With `CNc1cc(C)nc(Nc2cc3c(c(C4=CCN(CCOC)CCC4)c2)OCO3)n1` [Compound 145, N2-[7-[1-(2-methoxyethyl)-2,3,4,7-tetrahydroazepin-5-yl]-1,3-benzodioxol-5-yl]-N4,6-dimethyl-pyrimidine-2,4-diamine], the IC50 in assay [1] was over 2000 nM; in assay [2], 500 to 2000 nM; in assay [3] it was 100 to 500 nM.
For `CNc1cc(C)nc(Nc2cc3c(c(C4=C[C@H]5CNC[C@H]5C4)c2)OC(F)(F)O3)n1` (racemic) [Compound 143, N2-[7-(1,2,3,3a,6,6a-hexahydrocyclopenta[c]pyrrol-5-yl)-2,2-difluoro-1,3-benzodioxol-5-yl]-N4,6-dimethyl-pyrimidine-2,4-diamine] the same measures were over 2000 nM, 100 to 500 nM and over 2000 nM.
For `[2H]Cc1nc(Nc2cc3c(c(C4=CCNCCC4)c2F)OCC3)nc(NCC([2H])([2H])[2H])c1F` [Compound 226] the same measures were 100 to 500 nM, under 100 nM and 100 to 500 nM.
For `CNc1cc(Nc2cc3c(c(C4=CCNCCC4)c2F)OCO3)nc(C)c1F` [Compound 211] the same measures were under 100 nM, under 100 nM and under 100 nM.
For the compound `CNc1cc(C)nc(Nc2cc3c(c(C4=CCN(C)CC(O)C4)c2F)OCC3)n1` (single isomer, unassigned) [Compound 352], the IC50 in assay [1], in assay [2] and in assay [3] was under 100 nM each time.
For the compound `COCCCNc1cc(C)nc(Nc2cc3c(c(C4=CCN(C)CCC4)c2)OCC3)c1` [Compound 295], the concentration for half-maximal inhibition (IC50) in assay [1] was 500 to 2000 nM; in assay [2], 100 to 500 nM; in assay [3], 500 to 2000 nM.
As to `[2H]C([2H])([2H])Nc1nc(Nc2cc3c(c(C4=CCN(C)CCC4)c2)OCC3)nc(C)c1F` [Compound 271], the IC50 in assay [1] lay in the range of 500 to 2000 nM; in assay [2], 100 to 500 nM; in assay [3] it was 100 to 500 nM.
For `[2H]C([2H])([2H])Nc1cc(C)nc(Nc2cc3c(c(C4=CCN(C)CCC4)c2)OCCC3)n1` [Compound 268], the IC50 in assay [1] was 100 to 500 nM; in assay [2] it was under 100 nM; in assay [3], 100 to 500 nM.
`CNc1cc(C)nc(Nc2cc3c(c(C4=CCN(C)CCC4)c2)OCO3)n1` [Compound 141, N4,6-dimethyl-N2-[7-(1-methyl-2,3,4,7-tetrahydroazepin-5-yl)-1,3-benzodioxol-5-yl]pyrimidine-2,4-diamine]: the half-inhibitory concentration (IC50) in assay [1] was 100 to 500 nM; in assay [2] it was under 100 nM; in assay [3], under 100 nM.
Regarding `CNc1cc(C2CC2)nc(Nc2cc3c(c(C4=CCN(C)CCC4)c2)OCC3)n1` [Compound 314], the IC50 in assay [1] fell in the range of 500 to 2000 nM; in assay [2], 100 to 500 nM; in assay [3] it was 100 to 500 nM.
As to `CNc1cc(C)nc(Nc2cc3c(c(C4=CCN(C)CC(O)C4)c2C)OCC3)n1` (single isomer, unassigned) [Compound 375], the values for the IC50 in assay [1], in assay [2] and in assay [3] were 500 to 2000 nM, 100 to 500 nM and 100 to 500 nM, respectively.
As for `CNc1nc(Nc2cc3c(c(C4=CCN(C)CCC4)c2)OCC3)nc(C)c1F` [Compound 267], the IC50 in assay [1] was in the range of 500 to 2000 nM; in assay [2], 100 to 500 nM; in assay [3], 100 to 500 nM.
On to `[2H]Cc1nc(Nc2cc3c(c(C4=CCN(C)CCC4)c2)OCC3)nc(NC)c1F` [Compound 218], for which the results for the IC50 in assay [1], in assay [2] and in assay [3] were 500 to 2000 nM, 100 to 500 nM and 100 to 500 nM, respectively.

The record behind these values is patent US20240368139A1, “NOVEL MODULATORS OF EHMT1 AND EHMT2 AND THERAPEUTIC USE THEREOF” (Tango Therapeutics, Inc., priority 2021, published 2024).
